Measured values reported in patent US20130041005A1, “PHARMACEUTICAL COMPOSITIONS COMPRISING NEUROPILIN INHIBITORS, AND THEIR USE FOR THE PREVENTION AND/OR TREATMENT OF ANGIOGENIC DISORDERS AND CANCERS” (TRAGEX PHARMA, priority 2011, published 2013).

Assays:
U87 glioblastoma = assay: WST-1 proliferation assay, U87; assay type: cell-based; details: Homo sapiens; for IC50: Brain U87, 72 h, read-out: Anti-proliferative activity IC50 (μM) ± SD; for inhibition at 0.1 µM / inhibition at 0.5 µM / inhibition at 1 µM: U87 glioblastoma
Excerpt: (§1) Several cancer cell lines were used: breast cancer cells (MDA-MB-231 (ATTCC® Number HTB-26™), MDA-MB-436 (ATTCC® Number HTB-130™), MDA-MB-438, BT-474 (ATTCC® Number HTB-20™)); cervical cancer cells (HeLa (ATTCC® Number CCL-2™)); colon cancer cells (HCT-116 (ATTCC® Number CCL-247™) and HT-29 (ATTCC® Number HTB-38™)); osteosarcoma cells (U2OS (ATTCC® Number HTB-96™)); pancreas cancer cells (MIA PaCa-2 (ATTCC® Number CRL-1420™) and Panc-10.5 (ATTCC® Number CRL-2547™)); prostate cancer cells (PC-3 (ATTCC® Number CRL-1435™) and LNCaP (ATTCC® Number CRL-1740™)); brain cancer cells (U87 glioblastoma (ATTCC® Number HTB-14™) and SH-SYSY neuroblastoma (ATTCC® Number CRL-2266™)).
(§2) All the cancer cell lines were maintained in cultured in DMEM GlutaMAX™ (GIBCO Invitrogen, France, cat no 31966047) enhanced with 10% foetal bovine serum (GIBCO Invitrogen, France, cat no 10270-106) and 1% penicillin G/streptomycin (GIBCO Invitrogen, France, cat no 15140-122). Only Panc-10.5 cells were cultivated in RPMI 1640 medium (Gibco) supplemented with 2 mM L-glutamine, 1.5 g/L sodium bicarbonate, 4.5 g/L glucose, 10 mM HEPES, 1 mM sodium pyruvate, 10 Units/ml human insulin, […] (SVF): 15% (75 ml in 500 ml of medium).
(§3) Cells were grown as subconfluent monolayer and cultured in 75 cm^2 flasks at 37° C., 5% CO2 in a humidified atmosphere, and medium was changed every two days. Only cells from passages 2-6 were used for the experiments.
(§4) After observation of cells under the microscope, old media were removed and the adherent cells washed gently twice with PBS (Phosphate Buffer Saline, —Ca^2+, —Mg^2+, Lonza cat no: 17-512F/12). All cells were detached with 3 ml of trypsin/EDTA (chelator of calcium and magnesium ions) (Lonza), incubated for 5 min at 37° C., and examined using a microscope to ensure that the cells were detached and floating. Then, 3 ml TNS (Trypsin Neutralizing Solution, Lonza, France, cat no CC-5002) or of culture medium were added to inactivate the trypsin, and the cell suspension was transferred in a falcon and centrifuged for 7 min at 1400 rpm. The supernatant was removed and the cell pellet resuspended in […] of culture medium. 50 μl of this solution were transferred in 20 μl of isotonic solution and the cells were counted by count cellular (Beckman Coulter). At day 0, 200 μl of cellular suspension (3.10^3 cells/well for the HUVEC cells, breast cancer cells (MDA-MB-231 1.10^4 cells/well, MDA-MB-436 1.10^4 cells/well, MDA-MB-438 2.10^4 cells/well, BT-474 2.5.10^4 cells/well); cervical cancer cells (HeLa 5.000 cells/well); colon cancer cells (HCT-116 5.10^3 cells/well, HCT-29 1.1.10^4 cells/well); osteosarcoma cells (U2OS 8.10^3 cells/well); pancreas cancer cells (MIA PaCa-2 5.10^3 cells/well, Panc-10.5 1.5.10^4 cells/well); prostate cancer cells (PC-3 4.10^3 cells/well, LNCaP 2.10^4 cells/well); brain cancer cells (U87 5.10^3 cells/well, SH-SYSY 8.10^4 cells/well)) were then plated on 96 well plates and incubated at 37° C. in a humidified atmosphere of 5% CO2 for 24 h.
(§5) At day 1, the compounds 1 or 2 of the invention were added at increasing concentrations (0.1-10 μM) in the wells and plates were incubated at 37° C. in a humidified atmosphere of 5% CO2 for 72 h.
(§6) The cell proliferation WST-1 assay is a colorimetric assay for the quantification of cell proliferation and viability, based on the enzymatic cleavage of the tetrazolium salt WST-1 added to the culture medium, to a water soluble colored formazan dye, detected by absorbance at 450 nm, by mitochondrial succinate-tetrazolium reductase in viable cells. An augmentation in enzyme activity will then lead to an increase in the amount of formazan dye formed, which directly correlates to the number of metabolically active cells in the culture.
(§7) After an incubation period of 72 h, at day 4, were prepared the 19 ml medium with reagent WST-1 1 ml ([…]). The medium was removed from the 96 microplate and 200 μl of solution WST-1/medium were added for each well. […]

SH-SY5Y = assay: WST-1 proliferation assay, SH-SY5Y; assay type: cell-based; details: Homo sapiens; Brain SH-SY5Y, 72 h; read-out: Anti-proliferative activity IC50 (μM) ± SD
Excerpt: as §1, with “CRL-2266™)). […]” for “CRL-2266™)).”
After observation of cells under the microscope, old media were removed and the adherent cells washed gently twice with PBS (Phosphate Buffer Saline, —Ca^2+, —Mg^2+, Lonza cat no: 17-512F/12). […] 50 μl of this solution were transferred in 20 μl of isotonic solution and the cells were counted by count cellular (Beckman Coulter). […]
The cell proliferation WST-1 assay is a colorimetric assay for the quantification of cell proliferation and viability, based on the enzymatic cleavage of the tetrazolium salt WST-1 added to the culture medium, to a water soluble colored formazan dye, detected by absorbance at 450 nm, by mitochondrial succinate-tetrazolium reductase in viable cells. […]

PC-3 = assay: WST-1 proliferation assay, PC-3; assay type: cell-based; details: Homo sapiens; for inhibition at 0.1 µM: PC-3, 0.1 μM; for inhibition at 0.5 µM: PC-3, 0.5 μM; for inhibition at 1 µM: PC-3, 1 μM; for IC50: Prostate PC-3, 72 h, read-out: Anti-proliferative activity IC50 (μM) ± SD
Excerpt: as §1, §2, §3, §4, §5, §6, §7

MDA-MB-231 cells = assay: In vivo MDA-MB-231 tumor study in NOD-SCID mice; details: for tumor size: oral gavage (FIG. 8B); for percentage of survival at day 35: oral gavage (FIG. 8C)
Procedure: Female (NOD-SCID) mice 5-6 weeks old were injected subcutaneously with MDA-MB-231 cells (5.10^6) at a single site on their right flanks. Tumors were allowed to grow (19 days) to less than […] before being pair-matched by tumor size into treatment groups (8 mice/group). One group was treated with vehicles (8 mice/group receiving cremofor 12.5%/ethanol 12.5%/H2O), one group was treated with 10 mg/kg of the compound 1 of the invention (8 mice/group receiving compound 1+cremofor 12.5%/ethanol 12.5%/H2O), one group was treated with 50 mg/kg of the compound 1 of the invention ([…] receiving compound 1+cremofor 12.5%/ethanol 12.5%/H2O). All groups received daily by oral gavages for 5 consecutive days/weeks approximately 100 μL of a solution containing the compound 1 of the invention. Mice were weighed regularly to assess toxicity of the treatments and the tumors were measured with calipers (width×width×length×Pi/6) to determine tumor growth. Mice survival was assessed during the study and metastatic development was investigated in lung, spleen and liver.

SMILES | IC50 (U87 glioblastoma) | inhibition at 0.1 µM (U87 glioblastoma) | inhibition at 0.5 µM (U87 glioblastoma) | inhibition at 1 µM (U87 glioblastoma) | IC50 (SH-SY5Y) | inhibition at 0.1 µM (PC-3) | inhibition at 0.5 µM (PC-3) | inhibition at 1 µM (PC-3) | IC50 (PC-3) | tumor size (MDA-MB-231 cells; 10 mg/kg) | percentage of survival at day 35 (MDA-MB-231 cells; 10 mg/kg) | tumor size (MDA-MB-231 cells; 50 mg/kg) | percentage of survival at day 35 (MDA-MB-231 cells; 50 mg/kg)
Cc1ccc(-c2nc3ccccc3[nH]2)cc1NC(=S)NC(=O)c1ccc2c(c1)OCCO2 [Compound 1, N-[5-(1H-benzimidazol-2-yl)-2-methylphenyl]-N′-(2,3-dihydro-1,4-benzodioxin-6-ylcarbonyl)thiourea] | 1 µM | 0% | 45% | 54% | 0.4 ± 0.03 µM | 3% | 25% | 47% | 1.7 ± 0.04 µM | tumor size was smaller | about 70% | tumor size was smaller | 100%
O=C(NC(=S)Nc1cccc(-c2nc3ccccc3[nH]2)c1)c1ccc2c(c1)OCCO2 [Compound 2, N-[3-(1H-benzimidazol-2-yl)phenyl]-N′-(2,3-dihydro-1,4-benzodioxin-6-ylcarbonyl)thiourea] | 0.3 ± 0.02 µM | 44% | 60% | 61% | 0.05 ± 0.04 µM | 29% | 46% | 46% | 1.5 ± 0.12 µM | – | – | – | –
